# According to patent publication US20260356841A1, “HETEROCYCLIC PYRIDINONE COMPOUNDS AS TRIGGERING RECEPTOR EXPRESSED ON MYELOID CELLS 2 AGONISTS AND METHODS OF USE” (Vigil Neuroscience, Inc., priority 2023, published 2026):
# Target: T1, human TREM2 (Homo sapiens, UniProt Q9NZC2)
# T1 construct: expressed in transfected cells; host or cells: HEK293T (HEK293T-hTREM2 cells)
# Experiment: TREM2 agonist potency by cellular phosphorylation of Spleen Tyrosine Kinase (Syk), AlphaLisa, HEK293T-hTREM2 cells
# Format: cell-based
# Details: not given
# Outline: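 HEK293T cells co-expressing human TREM2 and DAP12, plated 20–24 h before use. Compounds applied 45 min at room temperature in assay buffer, then cells lysed and phospho-Syk quantified by AlphaLisa. Percent activation from a standard curve; EC50 from a four-parameter variable-slope fit.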
# T1 sequence (Q9NZC2 19-230): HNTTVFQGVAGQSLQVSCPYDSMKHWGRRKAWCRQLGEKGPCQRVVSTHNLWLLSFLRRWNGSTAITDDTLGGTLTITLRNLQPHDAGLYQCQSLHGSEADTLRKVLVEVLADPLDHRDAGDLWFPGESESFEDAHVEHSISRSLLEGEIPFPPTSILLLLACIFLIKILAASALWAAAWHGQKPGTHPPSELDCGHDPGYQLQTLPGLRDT
# T1 sequence (O43914 22-113 partner): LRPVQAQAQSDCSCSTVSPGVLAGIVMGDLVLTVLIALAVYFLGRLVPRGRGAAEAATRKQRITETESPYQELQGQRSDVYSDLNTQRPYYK
row,EC50,Compound
1,< 100 nM,"[2H]C([2H])([2H])n1cc([C@H]2C[C@@H](c3nc(-c4ccc(C(F)(F)F)cc4F)c4nc(OC)c(C)nc4n3)CCO2)ccc1=O [Example 132, 5-[(2R,4S)-4-[4-[2-fluoro-4-(trifluoromethyl)phenyl]-6-methoxy-7-methyl-pteridin-2-yl]tetrahydropyran-2-yl]-1-(trideuteriomethyl)pyridin-2-one]"

# Same assay, conditions: hTREM2 EC50 Data (HEK293 Cells); Syk phosphorylation, AlphaLisa; read-out: hTREM2 EC50
row,EC50,Compound
1,< 100 nM,"Cc1nc2nc([C@@H]3CCO[C@H](c4ccc(=O)n(C)c4)C3)nc(-c3ccc(C(F)(F)F)cc3F)c2nc1C(F)F [Example 127, 5-[(2S,4R)-4-[6-(difluoromethyl)-4-[2-fluoro-4-(trifluoromethyl)phenyl]-7-methyl-pteridin-2-yl]tetrahydropyran-2-yl]-1-methyl-pyridin-2-one]"
2,< 100 nM,"COc1nc2c(-c3ccc(C(F)(F)F)cc3F)nc([C@H]3CCO[C@@H](c4ccc(=O)n(C)c4)C3)nc2nc1C [Example 129, 1-methyl-5-[(2R,4S)-4-[4-[2-fluoro-4-(trifluoromethyl)phenyl]-6-methoxy-7-methyl-pteridin-2-yl]tetrahydropyran-2-yl]pyridin-2-one]"
3,< 100 nM,"COc1nc2c(-c3ccc(C(F)(F)F)cc3F)nc([C@@H]3CCO[C@H](c4ccc(=O)n(C)c4)C3)nc2nc1C [Example 130, 1-methyl-5-[(2S,4R)-4-[4-[2-fluoro-4-(trifluoromethyl)phenyl]-6-methoxy-7-methyl-pteridin-2-yl]tetrahydropyran-2-yl]pyridin-2-one]"
4,< 100 nM,COc1nc2c(-c3ccc(C(F)(F)F)cc3F)nc(C3CCOC(c4ccc(=O)n(C)c4)C3)nc2nc1C (centres unmarked) [Example 131]
5,< 100 nM,"COc1nc2c(-c3ccc(C(F)(F)F)cc3F)nc([C@H]3CCO[C@@H](c4ccc(=O)n(C5CC5)c4)C3)nc2nc1C [Example 134, 1-cyclopropyl-5-[(2R,4S)-4-[4-[2-fluoro-4-(trifluoromethyl)phenyl]-6-methoxy-7-methyl-pteridin-2-yl]tetrahydropyran-2-yl]pyridin-2-one]"
6,< 100 nM,"COc1nc2c(C3CCCCC3)nc([C@H]3CCO[C@@H](c4ccc(=O)n(C)c4)C3)nc2nc1C [Example 136, 5-[(2R)-4-(4-cyclohexyl-6-methoxy-7-methyl-pteridin-2-yl)tetrahydropyran-2-yl]-1-methyl-pyridin-2-one]"
7,< 100 nM,"COc1nc2c(C3CCC(F)(F)CC3)nc([C@H]3CCO[C@@H](c4ccc(=O)n(C)c4)C3)nc2nc1C [Example 138, 5-[(2R,4S)-4-[4-(4,4-difluorocyclohexyl)-6-methoxy-7-methyl-pteridin-2-yl]tetrahydropyran-2-yl]-1-methyl-pyridin-2-one]"
8,< 100 nM,"COc1nc2c(C34CC(C(F)(F)F)(C3)C4)nc([C@H]3CCO[C@@H](c4ccc(=O)n(C)c4)C3)nc2nc1C [Example 140, 5-[(2R,4S)-4-[6-methoxy-7-methyl-4-[3-(trifluoromethyl)-1-bicyclo[1.1.1]pentanyl]pteridin-2-yl]tetrahydropyran-2-yl]-1-methyl-pyridin-2-one]"
9,< 100 nM,"COc1nc2c(C34CC(C(F)(F)F)(C3)C4)nc([C@H]3CCO[C@@H](c4ccc(=O)n(C5CC5)c4)C3)nc2nc1C [Example 142, 1-cyclopropyl-5-[(2R,4S)-4-[6-methoxy-7-methyl-4-[3-(trifluoromethyl)-1-bicyclo-[1.1.1]pentanyl]pteridin-2-yl]tetrahydropyran-2-yl]pyridin-2-one]"
10,< 100 nM,"COc1nc2c(C34CC(C(F)(F)F)(C3)C4)nc([C@H]3CCO[C@@H](c4ccc(=O)n(CC#N)c4)C3)nc2nc1C [Example 145, 2-[5-[(2R,4S)-4-[6-methoxy-7-methyl-4-[3-(trifluoromethyl)-1-bicyclo-[1.1.1]pentanyl]pteridin-2-yl]tetrahydropyran-2-yl]-2-oxo-1-pyridyl]acetonitrile]"
11,< 100 nM,"[2H]C([2H])([2H])n1cc([C@H]2C[C@@H](c3nc(C45CC(C(F)(F)F)(C4)C5)c4nc(OC)c(C)nc4n3)CCO2)ccc1=O [Example 147, 5-((2R,4S)-4-(6-methoxy-7-methyl-4-(3-(trifluoromethyl)-bicyclo[1.1.1]pentan-1-yl)pteridin-2-yl)tetrahydro-2H-pyran-2-yl)-1-(methyl-d3)pyridin-2(1H)-one]"
12,< 100 nM,"[2H]C([2H])([2H])n1cc([C@H]2C[C@@H](c3nc(C45CC(C(F)(F)F)(C4)C5)c4nc(OC)c(C)nc4n3)CCO2)cc(C)c1=O [Example 149, 5-[(2R,4S)-4-[6-methoxy-7-methyl-4-[3-(trifluoromethyl)-1-bicyclo-[1.1.1]pentanyl]pteridin-2-yl]tetrahydropyran-2-yl]-3-methyl-1-(trideuteriomethyl)-pyridin-2-one]"
13,< 100 nM,"COc1nc2c(C34CC(C(F)(F)F)(C3)C4)nc([C@H]3CCO[C@@H](c4ccc(=O)n(-c5csc(C)n5)c4)C3)nc2nc1C [Example 153, 5-((2R,4S)-4-(6-methoxy-7-methyl-4-(3-(trifluoromethyl)-bicyclo[1.1.1]pentan-1-yl)pteridin-2-yl)tetrahydro-2H-pyran-2-yl)-1-(2-methylthiazol-4-yl)pyridin-2(1H)-one]"
14,< 100 nM,"Cc1nc2c(C34CC(C(F)(F)F)(C3)C4)nc([C@H]3CCO[C@@H](c4ccc(=O)n(C)c4)C3)nc2nc1C1CC1 [Example 155, 1-methyl-5-[(2R,4S)-4-[7-cyclopropyl-6-methyl-4-[3-(trifluoro-methyl)-1-bicyclo[1.1.1]pentanyl]-pteridin-2-yl]tetrahydropyran-2-yl]pyridin-2-one]"
15,< 100 nM,"Cc1nc2c(C34CC(C(F)(F)F)(C3)C4)nc([C@@H]3CCO[C@H](c4ccc(=O)n(C)c4)C3)nc2nc1C1CC1 [Example 156, 1-methyl-5-[(2S,4R)-4-[7-cyclopropyl-6-methyl-4-[3-(trifluoro-methyl)-1-bicyclo[1.1.1]pentanyl]pteridin-2-yl]tetrahydropyran-2-yl]pyridin-2-one]"
16,< 100 nM,"Cc1nc2nc([C@H]3CCO[C@@H](c4ccc(=O)n(C)c4)C3)nc(C34CC(C(F)(F)F)(C3)C4)c2nc1C1CC1 [Example 158, 1-methyl-5-[(2R,4S)-4-[6-cyclopropyl-7-methyl-4-[3-(trifluoro-methyl)-1-bicyclo[1.1.1]pentanyl]pteridin-2-yl]tetrahydropyran-2-yl]pyridin-2-one]"
17,< 100 nM,"Cc1nc2nc([C@@H]3CCO[C@H](c4ccc(=O)n(C)c4)C3)nc(C34CC(C(F)(F)F)(C3)C4)c2nc1C1CC1 [Example 159, 1-methyl-5-[(2S,4R)-4-[6-cyclopropyl-7-methyl-4-[3-(trifluoro-methyl)-1-bicyclo[1.1.1]pentanyl]pteridin-2-yl]tetrahydropyran-2-yl]pyridin-2-one]"
18,< 100 nM,Cc1nc2nc([C@H]3CCO[C@@H](c4cnc(=O)n(C)c4)C3)nc(C34CC(C(F)(F)F)(C3)C4)c2nc1C [Example 161]
19,< 100 nM,"Cc1nc2nc([C@@H]3CCO[C@H](c4cnc(=O)n(C)c4)C3)nc(C34CC(C(F)(F)F)(C3)C4)c2nc1C [Example 162, 1-methyl-5-[(2S,4R)-4-[6,7-dimethyl-4-[3-(trifluoromethyl)-1-bicyclo[1.1.1]-pentanyl]pteridin-2-yl]tetrahydropyran-2-yl]pyrimidin-2-one]"
